Test results from patent US4157392A, “Pharmacologically active substituted 1,2,4-triazines” (Diamond Shamrock Corporation, priority 1978, dated 1979).
Counter-ions that a name gives are not always drawn. Like-named read-outs stand apart in the source and are kept apart here.

Columns and labels:
[1] = tested on: carrageenin-induced edema in the hind paw of a rat; assay: Carrageenin Assay (carrageenin-induced edema, hind paw); type: in vivo, rat (male, Long Evans strain); details: 1 h before carrageenin, edema at 3 h, compared to phenylbutazone control values; for inhibition in vivo at 175 mg/kg: 175 mg/kg oral; for inhibition in vivo at 150 mg/kg: 150 mg/kg oral
Protocol: The procedure employed is a modification of the method of Winter et al, Proc. Soc. Exptl. Biol. Med. 111:544 (1962). The device used for measurement of the paw volume is an adaptation of the water displacement procedure described by Adamkiewicz et al, Can. J. Biochem. Physiol. 33:332 (1955). Test compounds were administered orally, one hour prior to the intraplantar injection of 0.05 ml. of sterile 1.0 percent solution of carrageenin into the left hind paw of male rats (Long Evans strain) weighing between about 130-200 grams. At peak swelling time (3 hours) the volume of edema was calculated by differential paw volumes.
Table I sets forth the results obtained (indicated as percent reduction of edema compared to phenylbutazone control values) at the indicated dosages for each of the identified compounds.

[2] = tested on: phenylquinone writhing in mice; assay: Phenylquinone Writhing Assay (analgesia); type: in vivo, mouse (Carworth CF1 male mice); details: for responders at 70 mg/kg: 70 mg/kg oral
Protocol: The phenylquinone writhing test was employed to evaluate analgesic activity according to the following procedure:
Phenylquinone (phenyl-p-benzoquinone, No. 7104, Eastman Organic Chemicals) is made up as a 0.02% aqueous solution in 5% ethyl alcohol. Phenylquinone solutions are made up fresh twice daily. Standard reference agents and the test compounds are dissolved or suspended in a 0.25% methylcellulose solution. A control group consisting of ten mice (Carworth CF1 male mice) are administered the 0.02% phenylquinone solution at a dose of 0.25 ml/mouse. The mice are housed individually and observed closely for ten minutes for exhibition of writhing. The onset of writhing occurs within three minutes and 100% of the mice must writhe within ten minutes. Test compounds are administered orally to groups of ten mice. The volume given is 0.01 ml/gram of body weight. Activity can be studied at 15, 30, 60, and 120 minutes after oral administration. After the designated time interval of a dose group has elapsed, the mice are challenged with phenylquinone intraperitoneally. Complete blocking of the writhing syndrom for the ten minute observation period in any one mouse is considered a positive analgesic response for that mouse. Conversely, if any mouse writhes definitely once it is considered not to be protected. The number of mice not writhing in group multiplied by ten equals percent analgesia for that dose at that time interval.

[3] = Rattus norvegicus, read-out: % Reduction of Edema
[4] = Mus musculus, po, 0.5 h, 100 mg/kg oral, 30 Min., read-out: Phenylquinone Writhing Assay (% Control), percent analgesia
[5] = Rattus norvegicus, 200 mg/kg oral, read-out: % Reduction of Edema
[6] = Mus musculus, po, 0.5 h, 50 mg/kg oral, 30 Min., read-out: Phenylquinone Writhing Assay (% Control), percent analgesia
[7] = Mus musculus, po, 0.5 h, 30 Min., read-out: Phenylquinone Writhing Assay (% Control), percent analgesia
[8] = Mus musculus, po, 1 h, 100 mg/kg oral, 60 Min, read-out: Phenylquinone Writhing Assay (% Control), percent analgesia

## 3-methoxy-5,6-di(4'-methylphenoxy)-1,2,4-triazine [Example 26]
[1]; 200 mg/kg oral
  % Reduction of Edema: 12%
[2]; 25 mg/kg oral, 15 Min.
  Phenylquinone Writhing Assay (% Control), percent analgesia: 10%
[2]; 25 mg/kg oral, 30 Min.
  Phenylquinone Writhing Assay (% Control), percent analgesia: 10%
[2]; 25 mg/kg oral, 60 Min
  Phenylquinone Writhing Assay (% Control), percent analgesia: 10%
[2]; 50 mg/kg oral, 15 Min.
  Phenylquinone Writhing Assay (% Control), percent analgesia: 40%
[2]; 50 mg/kg oral, 30 Min.
  Phenylquinone Writhing Assay (% Control), percent analgesia: 10%
[2]; 50 mg/kg oral, 60 Min
  Phenylquinone Writhing Assay (% Control), percent analgesia: 20%
[2]; 100 mg/kg oral, 15 Min.
  Phenylquinone Writhing Assay (% Control), percent analgesia: 20%
[2]; 100 mg/kg oral, 30 Min.
  Phenylquinone Writhing Assay (% Control), percent analgesia: 50%
[2]; 100 mg/kg oral, 60 Min
  Phenylquinone Writhing Assay (% Control), percent analgesia: 50%

## CSc1nncc(-c2ccccc2)n1 [Example 1, 3-methylthio-5-phenyl-1,2,4-triazine]
[1]; [3]
  inhibition in vivo at 175 mg/kg: 27%
[2]; Mus musculus, po, 0.25 h, 50 mg/kg oral, 15 Min., read-out: Phenylquinone Writhing Assay (% Control), percent analgesia
  responders at 50 mg/kg: 10%
[2]; [4]
  responders at 100 mg/kg: 10%

## CSc1nncc(C(C)(C)C)n1 [Example 4, 3-methylthio-5-t-butyl-1,2,4-triazine]
[1]; [3]
  inhibition in vivo at 150 mg/kg: 57%
[2]; [4]
  responders at 100 mg/kg: 20%

## CC(C)(C)c1cnnc(NN)n1 [Example 5, 3-hydrazino-5-t-butyl-1,2,4-triazine]
[1]; [3]
  inhibition in vivo at 175 mg/kg: 82%
[2]; Mus musculus, po, 0.5 h, 25 mg/kg oral, 30 Min., read-out: Phenylquinone Writhing Assay (% Control), percent analgesia
  responders at 25 mg/kg: 20%

## CSc1nncc(-c2cccs2)n1 [Example 6, 3-methylthio-5-(2'-thienyl)-1,2,4-triazine]
[1]; [5]
  inhibition in vivo at 200 mg/kg: 51%
[2]; Mus musculus, po, 0.25 h, 25 mg/kg oral, 15 Min., read-out: Phenylquinone Writhing Assay (% Control), percent analgesia
  responders at 25 mg/kg: 20%
[2]; [6]
  responders at 50 mg/kg: 70%

## COc1nncc(-c2cccc(C(F)(F)F)c2)n1 [Example 8, 3-methoxy-5-(3'-trifluoromethylphenyl)-1,2,4-triazine]
[1]; Rattus norvegicus, 100 mg/kg oral, read-out: % Reduction of Edema
  inhibition in vivo at 100 mg/kg: 77%
[2]; [7]
  responders at 70 mg/kg: 10%

## CSc1nncc(-c2ccco2)n1 [Example 9, 3-methylthio-5-(2-furyl)-1,2,4-triazine]
[1]; [5]
  inhibition in vivo at 200 mg/kg: 39%
[2]; [6]
  responders at 50 mg/kg: 50%
[2]; Mus musculus, po, 1 h, 50 mg/kg oral, 60 Min, read-out: Phenylquinone Writhing Assay (% Control), percent analgesia
  responders at 50 mg/kg: 10%

## CSc1nnc(C)c(C)n1 [Example 10, 3-methylthio-5,6-dimethyl-1,2,4-triazine]
[1]; Rattus norvegicus, 70 mg/kg oral, read-out: % Reduction of Edema
  inhibition in vivo at 70 mg/kg: 54%
[2]; [4]
  responders at 100 mg/kg: 70%
[2]; [8]
  responders at 100 mg/kg: 20%

## CSc1nnc(-c2ccccn2)c(-c2ccccn2)n1 [Example 12, 3-methylthio-5,6-(2'-pyridyl)-1,2,4-triazine]
[1]; [5]
  inhibition in vivo at 200 mg/kg: 19%
[2]; [4]
  responders at 100 mg/kg: 10%
[2]; [8]
  responders at 100 mg/kg: 20%

## CSc1nncc(-c2c[nH]c3ccccc23)n1 [Example 13, 3-methylthio-5-(3'-indolyl)-1,2,4-triazine]
[1]; [5]
  inhibition in vivo at 200 mg/kg: 71%

## CSc1nnc(-c2ccc(NC(C)=O)cc2)c(-c2ccc(NC(C)=O)cc2)n1 [Example 14, 3-methylthio-5,6-(4'-acetamidophenyl)-1,2,4-triazine]
[1]; [5]
  inhibition in vivo at 200 mg/kg: 12%

## COc1nncc(C)n1 [Example 17, 3-methoxy-5-methyl-1,2,4-triazine]
[1]; [5]
  inhibition in vivo at 200 mg/kg: 8%

## COc1nncc(C(C)(C)C)n1 [Example 18, 3-methoxy-5-t-butyl-1,2,4-triazine]
[1]; [5]
  inhibition in vivo at 200 mg/kg: 64%
[2]; [6]
  responders at 50 mg/kg: 40%

## COc1nncc(-c2ccco2)n1 [Example 20, 3-methoxy-5-(2'-furyl)-1,2,4-triazine]
[1]; [3]
  inhibition in vivo at 175 mg/kg: 70%
[2]; Mus musculus, po, 0.5 h, 30 mg/kg oral, 30 Min., read-out: Phenylquinone Writhing Assay (% Control), percent analgesia
  responders at 30 mg/kg: 10%

## CCOc1nncc(-c2ccccc2)n1 [Example 21, 3-ethoxy-5-phenyl-1,2,4-triazine]
[1]; [5]
  inhibition in vivo at 200 mg/kg: 96%

## COc1nncc(-c2ccc3ccccc3c2)n1 [Example 22, 3-methoxy-5-(2'-naphthyl)-1,2,4-triazine]
[1]; [5]
  inhibition in vivo at 200 mg/kg: 7%
[2]; Mus musculus, po, 0.25 h, 100 mg/kg oral, 15 Min., read-out: Phenylquinone Writhing Assay (% Control), percent analgesia
  responders at 100 mg/kg: 20%
[2]; [4]
  responders at 100 mg/kg: 10%
[2]; [8]
  responders at 100 mg/kg: 10%

## COc1nnc(C)c(C)n1 [Example 23, 3-methoxy-5,6-dimethyl-1,2,4-triazine]
[1]; Rattus norvegicus, 40 mg/kg oral, read-out: % Reduction of Edema
  inhibition in vivo at 40 mg/kg: 4%

## Cc1nnc(OC(C)C)nc1C [Example 24, 3-isopropoxy-5,6-dimethyl-1,2,4-triazine]
[1]; [5]
  inhibition in vivo at 200 mg/kg: 37%
[2]; [7]
  responders at 70 mg/kg: 10%

## COc1nnc(-c2ccccn2)c(-c2ccccn2)n1 [Example 27, 3-methoxy-5,6-di(2'-pyridyl)-1,2,4-triazine]
[1]; [5]
  inhibition in vivo at 200 mg/kg: 46%

## COc1ccc(-c2cnnc(SC)n2)cc1OC [Example 33, 3-methylthio-5-(3',4'-dimethoxyphenyl)-1,2,4-triazine]
[1]; [5]
  inhibition in vivo at 200 mg/kg: 32%

## COc1nncc(C23CC4CC(CC(C4)C2)C3)n1 [Example 36, 3-methoxy-5-(1'-adamantyl)-1,2,4-triazine]
[1]; [3]
  inhibition in vivo at 150 mg/kg: 30%

## COc1nncc(C2CC2)n1 [Example 41, 3-methoxy-5-cyclopropyl-1,2,4-triazine]
[1]; [5]
  inhibition in vivo at 200 mg/kg: 57%

## COc1nncc(-c2ccc(Br)cc2)n1 [Example 45, 3-methoxy-5-(4'-bromophenyl)-1,2,4-triazine]
[1]; [5]
  inhibition in vivo at 200 mg/kg: 33%

## COc1ccc(-c2cnnc(OC)n2)cc1 [Example 46, 3-methoxy-5-(4'-methoxyphenyl)-1,2,4-triazine]
[1]; [5]
  inhibition in vivo at 200 mg/kg: 17%

## C=CCOc1nncc(-c2ccccc2)n1 [Example 47, 3-allyloxy-5-phenyl-1,2,4-triazine]
[1]; [5]
  inhibition in vivo at 200 mg/kg: 67%

## Clc1nnc(-c2ccccc2)c(-c2ccccc2)n1 [Example 51, 3-chloro-5,6-diphenyl-1,2,4-triazine]
[1]; [5]
  inhibition in vivo at 200 mg/kg: 4%

## Cc1nnc(SCc2ccccc2)nc1C [Example 56, 3-benzylthio-5,6-dimethyl-1,2,4-triazine]
[1]; [5]
  inhibition in vivo at 200 mg/kg: 52%

## CSc1nncc(-c2ccc([N+](=O)[O-])cc2)n1 [Example 57, 3-methylthio-5-(4'-nitrophenyl)-1,2,4-triazine]
[1]; [5]
  inhibition in vivo at 200 mg/kg: 16%

## COc1nncc(-c2ccc(F)cc2F)n1 [Example 58, 3-methoxy-5-(2',4'-difluorophenyl)-1,2,4-triazine]
[1]; [3]
  inhibition in vivo at 150 mg/kg: 36%

## CSc1nncc(-c2ccccc2)n1 [Example 59, 3-methylthio-5-phenyl-1,2,4-triazine (hydrogen iodide salt)]
[1]; [3]
  inhibition in vivo at 150 mg/kg: 14%

## Cc1ccc(Oc2nnc(-c3ccccc3)c(-c3ccccc3)n2)cc1 [Example 60, 3-(4'-methylphenoxy)-5,6-diphenyl-1,2,4-triazine]
[1]; [5]
  inhibition in vivo at 200 mg/kg: 18%

## CCOc1nnc(-c2ccccc2)c(-c2ccccc2)n1 [Example 61, 3-ethoxy-5,6-diphenyl-1,2,4-triazine]
[1]; [5]
  inhibition in vivo at 200 mg/kg: 12%

## CCc1ccc(-c2cnnc(SC)n2)cc1 [Example 62, 3-methylthio-5-(4'-ethylphenyl)-1,2,4-triazine]
[1]; [5]
  inhibition in vivo at 200 mg/kg: 33%

## COc1ccc(Oc2nncc(-c3ccccc3)n2)cc1 [Example 63, 3-(4'-methoxyphenoxy)-5-phenyl-1,2,4-triazine]
[1]; [5]
  inhibition in vivo at 200 mg/kg: 15%

## CCCCCOc1nncc(-c2ccccc2)n1 [Example 64, 3-n-pentoxy-5-phenyl-1,2,4-triazine]
[1]; [5]
  inhibition in vivo at 200 mg/kg: 29%

## NCC(=O)NNc1nncc(-c2ccccc2)n1 [Example 113, N2-(5-Phenyl-1,2,4-Triazin-3-yl) Glycine Hydrazide (Dihydrobromide Hydrate)]
[1]; Rattus norvegicus, 50 mg/kg oral, read-out: % Reduction of Edema
  inhibition in vivo at 50 mg/kg: 32%
